Measurements published in patent publication US20180105492A1, “COMPOUNDS DERIVED FROM 3-ALKYLAMINE-1H-INDOLYL ACRYLATE AND THEIR USE IN THE TREATMENT OF NEURODEGENERATIVE DISEASES” (FUNDACION PARA LA INVESTIGACION BIOMEDICA DEL HOSPITAL …, priority 2014, published 2018).

What was measured:
[1] = system: Nrf2 transcription factor (Nrf2-ARE); assay: Nrf2-ARE induction, luciferase activity in AREc32 (MCF7 cells stably transfected with ARE-LUC); format: cell-based; conditions: Homo sapiens, 24 h, basal = 1, read-out: Relative Luciferase activity (response versus basal)
Method: For the study of Nrf2 transcription factor, the cellular line AREC32 was used, which is characterized for being stably transfected with the reporter gene of Luciferase linked to the ARE sequence. In the presence electrophilic compounds or oxidative stress, Nrf2 factor binds to ARE sequences, activating luciferase expression and producing a proportional quantity of luciferase. The AREc32 cells were cultured in DMEM media with glutamax, supplemented with 10% fetal bovine serum (FBS), 1% penicillin-streptomycin and 1.6% geneticine (G418) (obtained from GIBCO, Madrid, Spain). Cells were cultured in 75 cm flasks with 11 mL of specific media, incubated at 37° C. and 5% of CO2. Cells were passed every 4-6 days (1:4), whenever the confluence reached 80%. For the experiments, cells were cultured in transparent surface 96 well plates at a density of […] with 100 μL/well. After 24 h in culture, cells were treated with the compounds at different concentrations (1, 10, 30 and 60 μM) during 24 h at 37° C. and 5% CO2. In every experiment it was also included a basal variable, a variable with 10 μM tert-butyl hydroquinone (TBHQ) (positive control) and the variables of the study in a final volume of 100 μL. After an incubation of 24 h with the compounds, luciferase activity was measured by bioluminescence using the commercial kit “Luciferase assay system” (Promega E1500). For that, treatments were removed and cells were washed with 100 μL of PBS 0.1 M. After washing, 20 μL of “lysis buffer” reactive was added to each well. 10 minutes later, luminescence was measured using the multi-well reader FluoStar optima (BMG labtech).
Luminescence was measured in arbitrary units and is directly proportional to luciferase quantity in the wells, which is also directly proportional to Nrf2 transcription factor induction by the specific compound at the established concentration. Measurements were made in duplicate and values were normalized to the basal luminescence value, considered as 1.
The results of Nrf2 induction obtained for the compounds 1 to 16 are shown in Table 1 and are expressed as induction, considering 1 the non-treated cells.

[2] = system: Nrf2 transcription factor (Nrf2-ARE); assay: as above; format: cell-based; conditions: Homo sapiens, 24 h, basal = 1, read-out: Relative Luciferase activity (response versus basal); remark: listed apart in the source

Structure (SMILES)	fold induction at 10 µM ([1]; 10 μM)	fold induction at 30 µM ([1]; 30 μM)	fold induction at 60 µM ([1]; 60 μM)	fold induction at 3 µM ([2]; 3 μM)	fold induction at 6 µM ([2]; 6 μM)	fold induction at 1 µM ([1]; 1 μM)
CCOC(=O)C=Cc1ccccc1 [Ethyl Cinnamate, reference compound]	1.46 ± 0.1	1.4 ± 0.1	1.55 ± 0.1			
CC(C)(C)c1cc(O)ccc1O [TBHQ, tert-butyl hydroquinone]				3.83 ± 0.3	6.1 ± 0.1	2.19 ± 0.1
